The target in assay [1] is MBHA DNA substrate. As to the kind of experiment: Fluorescent intercalation displacement (FID) assay, ethidium bromide. Format: binding. The note with it: for EC50: FID, mean ± SD, read-out: DNA Binding (Ethidium Bromide) EC50. How it is done: Fluorescent intercalation displacement (FID) assays (Boger, et al. (2001) J. Am. Chem. Soc. 123:5878-5891) were used to measure the ability of a compound to bind the MBHA substrate. The concentration at which half the ethidium bromide is displaced (EC50) was determined using the different conditions as above to more closely mimic the conditions of a standard helicase assay. Each 100 μL reaction contained 25 mM MOPS pH 6.5, 0.16 μM MBHA DNA substrate (lacking Cy5 and IBQ-RQ modifications), 2 μM ethidium bromide, and various concentrations of test compound. Fluorescence of ethidium bromide was monitored using excitation and emission wavelengths of 545 and 595 nm, respectively, on a Cary Eclipse fluorescence spectrophotometer in white 96-well plates. The amount of ethidium bromide-DNA complex fluorescence was used to estimate the ability of compounds to bind DNA, and therefore displace the fluorescent intercalator (ethidium bromide).
In Equation 4, Fc is the fluorescence in the presence of the compound, F(−) is the average DMSO-only negative controls, and F(+) is the average positive controls (100 μM berenil). EC50 values were from a normalized dose-response curve.
These twelve hits were then subjected to a counterscreen designed to independently identify DNA binding compounds using a modified fluorescent intercalator displacement (FID) assay (Boger, et al. (2001) supra). The FID assay used ethidium bromide to judge a compound's ability to bind DNA and was based on the assumption that a DNA binding compound would displace a fluorescent DNA intercalating agent, leading to an observable decrease in observed fluorescence. Compounds were tested at 1.5 μM in the presence of the 25 base pair substrate used in the helicase assays.

Assay [2] deals with MBHA DNA substrate. As to the kind of experiment: Modified FID assay, SYBR Green I. The note with it: FID; mean ± SD; read-out: DNA Binding (SYBR Green I) EC50. It counts as binding. The protocol:
A modified FID assay, in which ethidium bromide was replaced with SYBR Green I (Invitrogen), was used to estimate a compounds affinity for the MBHA substrate. Reactions were performed as described above except that the DNA substrate was present at 0.32 μM, ethidium bromide was absent, and SYBER Green was present at (0.68 μM). Data were normalized as described above and fit to concentration-response equation using GraphPad Prism software. Titrations with each compound were performed in triplicate, and EC50 values from three independent titrations are reported ±standard deviations.

Assay [3] addresses T1, NS3h_1b(con1) (Hepatitis C virus genotype 1b, UniProt Q9WMX2).
T1 construct: truncated C-terminally His-tagged NS3 proteins lacking the N-terminal protease, called NS3h; His-tag (C); made in house
Briefly: ATP hydrolysis assay (malachite green). It counts as biochemical. The protocol:
A modified “malachite green” assay (Lanzetta, et al. (1979) Anal. Biochem. 100:95-97) was used to measure ATP hydrolysis. Fifty μL reactions contained 25 mM MOPS pH 6.5, 5 mM MgCl2, 2 mM ATP, 5 μg/mL BSA, 0.01% (v/v) TWEEN 20, 0.05 mM DTT, and poly(U) RNA (Saint Louis, Mo.) as indicated. Reactions were initiated by adding NS3h_1b(con1). Reactions were incubated for 15 minutes at 37° C. then stopped by mixing 40 μL of the reaction into 200 μL of the malachite green reagent (3 volumes 0.045% (w/v) malachite green, 1 volume 4.2% ammonium molybdate in 4N HCl, 0.05 volume of 20% TWEEN 20). […] Absorbance at 630 nm was proportional to the concentration of phosphate produced; free phosphate produced was measured against a standard curve.

Assay [4] has as its target T2, HCV NS3 helicase NS3h_1b(con1) (Hepatitis C virus genotype 1b, UniProt Q9WMX2).
T2 construct: truncated C-terminally His-tagged NS3 proteins lacking the N-terminal protease, called NS3h; His-tag (C); made in house
As to the kind of experiment: biochemical. It counts as biochemical, hepatitis C virus genotype 1b(con1). The text has this:
All oligonucleotides were purchased from Integrated DNA Technologies (IDT, Coralville, Iowa). The partially duplex DNA substrates used in MBHAs consisted of a helicase substrate forming 25 base pairs and consists of a 45-mer bottom strand 5′-GCTCCCCGTTCATCGATTGGGGAGC(T)20-3′ (SEQ ID NO:1) and the 25-mer HCV top strand 5′-Cy5-GCTCCCCAATCGATGAACGGGGAGC-IBRQ-3′ (SEQ ID NO:2). The 19 base pair RNA substrate used in MBHAs was composed of a 39 nucleotide long bottom strand 5′-AGU GCC UUG ACG AUA CAG C(U)20-3′ (SEQ ID NO:3) and the 24 nucleotide long top strand 5′-Tye^665-AGUGCGCUGUAUCGUCAAGGCACU-IBRQSp-3′ (SEQ ID NO:4). Underlined areas denote hairpin-forming regions. DNA and RNA substrates were annealed and purified as described previously (Belon & Frick (2008) BioTechniques 45:433-40, 442).
The cloning, expression, and purification of His-tagged recombinant HCV NS3 protein have been described previously (Lam, et al. (20030 J. Virol. 77:3950-61; Heck, et al. (2008) Antimicrob. Agents Chemother. 52:1901-11; Frick et al. (2010) Methods Mol. Biol. 587:223-233; Belon, et al. & Frick (2009) J. Mol. Biol. 388:851-864).
All molecular beacon-based helicase assays (MBHAs) were performed according to known methods (Belon & Frick (2008) supra; Belon & Frick (2009) supra). […] In each flat, black 384-well plate, 56 compounds were tested, in triplicate, along with three negative controls (DMSO only), three positive controls (500 nM dT20), and two wells with no enzyme. Fluorescence was read before ATP (F0) addition and 30 minutes after ATP was added to 1 mM (F30) using a Tecan Infinite M200 fluorescence microplate reader with excitation and emission wavelengths set to 643 and 670 nm, respectively. Percent inhibition was calculated with equation 1, and compound interference in the MBHA was calculated with equation 2.
To monitor helicase reaction kinetics and to calculate IC50 values, MBHAs were performed in 60 μL in white ½ area 96-well plates and measured in a Thermo Varioscan Multimode reader (Thermo Scientific) using the 643 nm excitation wavelength and 667 emission wavelengths. Reactions were again performed by first incubating all components except for ATP for two minutes, then initiated by injecting in 1/10 volume of ATP such that the final concentration of all components was as noted above. Conditions were as described above except that 5% v/v DMSO was present in each assay. Initial reaction velocities were calculated by fitting first-order decay equation to data obtained after ATP addition and calculating an initial velocity form the resulting amplitude and rate constant.
[formula] where, v0 is the velocity observed in DMSO-only controls inhibition, h is the Hillslope coefficient, [I] is the concentration of test compound.

For assay [5], the target named is T2, HCV NS3 helicase NS3h_1b(con1). Briefly: MBHA screen of NCI mechanistic set library at 20 μM (percent inhibition, compound interference). It counts as biochemical. The note with it: compounds at 20 μM; for Inh. (%) (Inhibition): calculated from Equation 1. The method, boiled down:
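Molecular beacon-based DNA unwinding assay; compounds screened at 20 μM in triplicate, with DMSO-only negative and 500 nM dT20 positive controls. Fluorescence (ex 643/em 670 nm) was read before and 30 min after adding ATP to 1 mM. Percent inhibition came from the change relative to DMSO controls; interference from pre-ATP fluorescence versus DMSO controls.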

Assay [6] addresses T3, E. coli SSB-Cy5-dT15 complex (Escherichia coli, UniProt P0AGE0).
T3 construct: purchased Promega
Briefly: Escherichia coli SSB Cy5-dT15 binding assay (fluorescence polarization). As to conditions: disruption of Cy5-dT15-SSB complex; read-out: Cy5-dT15-SSB Binding IC50. How it is done: The Escherichia coli SSB assay was performed in a total volume of 20.2 μl in 384-well, flat-bottom, low volume, black microplates (Greiner Bio-One). First, 20 μl of a assay solution (5 nM Cy5-[…]-3′ (Cy5-dT15, SEQ ID NO:5), 20 nM E. coli SSB (Promega), 25 mM MOPS, pH 7.5, 1.25 mM MgCl2, 0.0025 mg/ml BSA, 0.005% (v/v) TWEEN 20 and 0.025 mM DTT) was dispensed in each well, then 0.2 μl of dimethylsulfoxide (DMSO) or compound dissolved in DMSO was added by pin transfer, such that the final concentration of DMSO was 1% (v/v) in each assay.
For IC50 determination, assays were performed with 60 μl total volume in black flat bottomed 384-well microplates (Corning). First, 3.0 μl of DMSO or compound dissolved in DMSO was added, such that the final concentration of DMSO was 5% (v/v) in each assay. Then 57 μl of a assay solution (5 nM Cy5-dT15, 20 nM SSB, 25 mM MOPS, pH 7.5, 1.25 mM MgCl2, 0.0025 mg/ml BSA, 0.005% (v/v) TWEEN 20 and 0.025 mM DTT) was dispensed in each well. Polarization was monitored with a TECAN Infinite M1000 PRO multi-mode microplate reader by exciting at 635 nm (5 nm bandwidth) and measuring total fluorescence intensity, parallel and perpendicular polarized light at 667 nm (20 nm bandwidth).

The mark [7] stands for this setting: MBHA, DNA unwinding, mean ± SD of three titrations, read-out: Helicase IC50.
The mark [8] stands for this setting: MBHA with DNA substrate, assay interference calculated with Equation 2.
The mark [9] stands for this setting: assay interference calculated with Equation 2 (fluorescence vs DMSO-only controls before ATP).
[10] abbreviates: standard HCV helicase MBHA (Table 9), read-out: DNA Unwinding IC50.

Like-named read-outs stand apart in the source and are kept apart here.

T2 sequence (Q9WMX2 1192-1657): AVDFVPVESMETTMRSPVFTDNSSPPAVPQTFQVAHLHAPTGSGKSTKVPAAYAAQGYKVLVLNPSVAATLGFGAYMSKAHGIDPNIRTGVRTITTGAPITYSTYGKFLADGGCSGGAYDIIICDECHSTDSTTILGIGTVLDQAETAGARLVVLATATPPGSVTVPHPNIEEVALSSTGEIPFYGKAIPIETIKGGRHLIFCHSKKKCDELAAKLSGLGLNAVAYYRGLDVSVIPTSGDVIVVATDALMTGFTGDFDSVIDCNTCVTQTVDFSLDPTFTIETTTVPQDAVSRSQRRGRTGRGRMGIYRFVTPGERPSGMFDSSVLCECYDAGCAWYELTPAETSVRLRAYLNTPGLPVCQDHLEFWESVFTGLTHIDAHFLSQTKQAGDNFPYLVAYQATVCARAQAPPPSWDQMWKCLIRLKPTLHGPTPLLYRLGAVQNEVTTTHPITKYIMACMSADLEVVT
T3 sequence (P0AGE0 2-178, one chain of several): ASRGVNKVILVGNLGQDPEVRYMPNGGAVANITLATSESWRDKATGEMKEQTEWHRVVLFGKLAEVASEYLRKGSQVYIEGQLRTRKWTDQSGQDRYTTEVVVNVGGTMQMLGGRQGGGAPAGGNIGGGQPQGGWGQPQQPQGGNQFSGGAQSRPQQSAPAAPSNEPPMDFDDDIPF
T1 sequence (Q9WMX2 1192-1657): as the sequence (Q9WMX2 1192-1657) above

In the case of `N=C(N)c1ccc(N=NNc2ccc(C(=N)N)cc2)cc1` [Berenil, reference compound], the half-inhibitory concentration (IC50) in assay [1] (ethidium bromide FID, read-out: IC50 in FID assays (positive control)) is 1.6 ± 0.1 µM.
Take `Cc1cc(C(O)(c2ccc(Nc3ccccc3)cc2)c2ccc(Nc3ccc(S(=O)(=O)O)cc3)cc2)ccc1N` (stereo not shown) [Compound 3, reference compound]: the concentration for a half-maximal effect (EC50) in assay [2] was 20 ± 2 µM; in assay [1], 4 ± 2 µM. Further, the half-maximal inhibitory concentration (IC50) is greater than 100 µM in assay [3] and 17 ± 7 µM in assay [4] (setting [7]).
For the compound `O=[N+]([O-])c1cccc2nc3ccccc3c(NCCCNc3c4ccccc4nc4cccc([N+](=O)[O-])c34)c12` [Compound 690634], in assay [5] (setting [8]), the “Int.* (Ratio) (Interference)” value was 0.82 Ratio. In addition, the “Inh. (%) (Inhibition)” value in assay [5] (MBHA with DNA substrate) is listed as −10.3%.
The matching figures for `CCOC(=O)c1ccc(-c2cc(C)no2)[nH]1` [Compound 693053]: 0.93 Ratio and −18.5%.
For the compound `C/C(=N\Nc1nc2ccccc2s1)c1ccncn1` [Compound 693632], in assay [5] (MBHA with a DNA substrate), the “Inh. (%) (Inhibition)” value was −26.4%. Also, the “Int.* (Ratio) (Interference)” value in assay [5] (setting [9]) is given as 0.98 Ratio.
As for `CON(C)C(=O)C1CCCO1` (stereo not shown) [Compound 695218], the “Int.* (Ratio) (Interference)” value in assay [5] (setting [8]) is 0.99 Ratio. Moreover, the “Inh. (%) (Inhibition)” value in assay [5] (MBHA with DNA substrate) is reported as 13.3%.
With `CN(C)CC1CCC/C(=C\c2ccc(OC(=O)/C=C/c3ccccc3)cc2)C1=O.Cl` (stereo not shown) [Compound 697443], the “Inh. (%) (Inhibition)” value in assay [5] (MBHA with a DNA substrate) was 11.6%. Moreover, in assay [5] (setting [9]), the “Int.* (Ratio) (Interference)” value is listed as 1.01 Ratio.
The matching figures for `CC(=O)NC1C(OCc2ccccc2)OC(CO)C(O)C1OC(C)C(=O)NC(C(=O)NC(CCC(=O)NCCCCNc1c2ccccc2nc2cccc([N+](=O)[O-])c12)C(N)=O)C(C)C` (stereo not shown) [Compound 697468]: −23.8% and 0.97 Ratio.
In the same order, the values of `CC1=C(N2CC2)C(=O)C(CO)=C(N2CC2)C1=O` [Compound 697726] are −5.6% and 0.90 Ratio.
As to `Cc1ccc(S(=O)(=O)c2ccc([N+](=O)[O-])o2)cc1` [Compound 697923], in assay [5] (setting [8]), the “Int.* (Ratio) (Interference)” value is on record as 1.07 Ratio. For the same compound, the “Inh. (%) (Inhibition)” value in assay [5] (MBHA with DNA substrate) is reported as −14.4%.
In the same order, the values of `Cc1nnc(-n2c(O)cc(=O)n(-c3ccccc3)c2=S)nc1/C=C/c1ccc(N(C)C)cc1` [Compound 698031] are 0.98 Ratio and −16.0%.
`CN(C)c1ccc(C=c2c3ccccc3n3c2cc(-c2ccc(Cl)cc2)[n+]3C)cc1.O=S(=O)([O-])C(F)(F)F` [Compound 699479]: the “Int.* (Ratio) (Interference)” value in assay [5] (setting [8]) was 0.38 Ratio. For the same compound, the “Inh. (%) (Inhibition)” value in assay [5] (MBHA with DNA substrate) was 45.1%.
For the compound `CCCCn1c2c(n(CCCC)c1=S)-c1c(n(CCCC)c(=S)n1CCCC)SSSS2` [Compound 700582], in assay [5] (setting [8]), the “Int.* (Ratio) (Interference)” value is on record as 0.93 Ratio. Also, the “Inh. (%) (Inhibition)” value in assay [5] (MBHA with DNA substrate) is given as −16.2%.
For the compound `CCN(CC)c1ccc(-c2nc3ccc(C)c(S(=O)(=O)O)c3s2)cc1` [Compound T1, 2-(4-(diethylamino)phenyl)-6-methylbenzo[d]thiazole-7-sulfonic acid], in assay [1], the EC50 was greater than 100 µM. Moreover, the IC50 was 7 ± 2 µM in assay [6], greater than 100 µM in assay [3], 33 ± 24 µM in assay [4] (setting [7]) and 33 ± 24 µM in assay [4] (setting [10]).
As to `CCN(CC)c1ccc(-c2nc3ccc(-c4nc5ccc(C)c(S(=O)(=O)O)c5s4)cc3s2)cc1` [Compound T2, 2′-(4-(diethylamino)phenyl)-6-methyl-[2,6′-bibenzo[d]thiazole]-7-sulfonic acid], the EC50 in assay [1] was greater than 100 µM. The IC50 was found to be 2 µM in assay [6], 26 ± 21 µM in assay [4] (setting [7]) and 5 ± 2 µM in assay [4] (setting [10]).
`Cc1c2ccncc2c(C)c2c1[nH]c1ccccc12` [ellipticine, reference compound]: the IC50 in assay [4] (setting [7]) was 5.6 ± 0.8 µM.

Usually IC50 stands for the point on the concentration scale where inhibition reaches its midpoint. Broadly, the EC50 is the concentration needed to bring the measured effect to its halfway point.
